Source: patent publication US10555987B2, “GHRH agonists for the treatment of ischemic disorders” (UNIVERSITY OF MIAMI, priority 2012, dated 2020)
Non-standard residues stand in square brackets, D forms with d. Residues, ends and D or L forms follow the SMILES beside them. *: point of attachment. NMeY = CN[C@@H](Cc1ccc(O)cc1)C(=O)O; Agmatine = N=C(N)NCCCCN*; Nle = CCCC[C@H](N)C(=O)O; Orn = NCCC[C@H](N)C(=O)O; Abu = CC[C@H](N)C(=O)O

Columns and labels:
GH release [1] = assay: GH releasing potency in vivo, subcutaneous administration (Example 14, Table 12); parameters: species or system rat; conditions: s.c.; for Serum GH level at selected time after injection (ng/ml), 0 min / Serum GH level at selected time after injection (ng/ml), 15 min / Serum GH level at selected time after injection (ng/ml), 30 min: male rats, dose 3 μg/kg, mean ± SEM
Protocol: Male Sprague-Dawley rats, weighing 200-250 g, were purchased from Charles River Laboratory (Wilmington, Mass.) and used for experiments. All animal procedures were approved by the Veterans Affairs Animal Care and Use Committee and were conducted in accordance with additional institutional guidelines as well. Briefly, groups of 5-6 animals were used in each experiment. The rats were anesthetized with 50 mg/kg of sodium pentobarbital (Nembutal, Lundbeck Inc., Deerfield, Ill.). Twenty min after inducing anesthesia, GHRH(1-29)NH2, JI-38, or new analogs were injected into the animals intravenously (i.v.) or subcutaneously (s.c.). The peptides were dissolved in 0.01 M acetic acid to get 1 μg/μl stock solution, and then diluted with 5% mannitol. Control rats received 5% mannitol only. Blood samples were collected from the jugular vein at selected times and were used for serum preparation. Concentrations of GH in rat sera were determined by ELISA. The relative potencies of tested peptides were calculated using GHRH(1-29)NH2 and JI-38 for comparison, whose potency was defined as 1. The equivalent dosage of GHRH(1-29)NH2 to reach the same level of serum growth hormone release after injection of the specific tested peptide was determined from a GHRH(1-29)NH2 standard curve using Origin 6.0 software. […] Serum GH was determined using the rat Growth Hormone ELISA kit (ALPCO Diagnostics, Mill Valley, Calif.) according to the manufacturer's instruction. Absorbance at 405 nm was measured by a Victor 3 Multi-label Counter (Perkin-Elmer, Waltham, Md.).

GHRH receptor [2] = molecular target: T1, GHRH receptor (Homo sapiens, UniProt Q02643); assay: Receptor binding in vitro, 125I-labeled [His1,Nle27]-hGHRH(1-32)NH2, membrane receptors of human anterior pituitary cells (Table 14); conditions: for Relative affinity (Binding potency) compared to JI-38: JI-38 = 1; for Relative affinity (Binding potency) compared to hGHRH(1-29): hGHRH(1-29)NH2 = 1
T1 sequence (Q02643 23-423): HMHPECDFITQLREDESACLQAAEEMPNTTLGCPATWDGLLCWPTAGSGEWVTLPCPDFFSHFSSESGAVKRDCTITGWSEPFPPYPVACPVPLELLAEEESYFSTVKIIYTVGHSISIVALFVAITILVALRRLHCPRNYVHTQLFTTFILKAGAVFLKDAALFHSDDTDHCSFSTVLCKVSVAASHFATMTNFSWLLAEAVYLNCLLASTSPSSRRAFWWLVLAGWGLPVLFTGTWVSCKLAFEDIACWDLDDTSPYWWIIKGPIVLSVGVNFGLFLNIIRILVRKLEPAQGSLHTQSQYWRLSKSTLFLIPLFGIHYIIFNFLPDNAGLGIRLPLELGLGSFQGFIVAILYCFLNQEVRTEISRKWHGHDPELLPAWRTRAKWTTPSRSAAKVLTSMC
From the text: Normal human pituitary was purchased from the National Hormone and Peptide Program (UCLA Medical Center, Torrance, Calif.).

GH release [3] = assay: In vivo endocrine activity, GH release after subcutaneous administration (Table 9); conditions: rat, subcutaneous (s.c.) injection
Protocol: Subcutaneous Administration. Adult male rats were used and anesthetized with pentobarbital (6 mg/100 g, b.w.), by i.p. injection. […] Blood samples were taken from the jugular vein 5, 15 and/or 30 minutes after the injection. The blood samples were centrifuged, plasma was removed and the GH level was measured byELISA. The results are summarized in terms of potency in Table 9.

GHRH receptor [4] = molecular target: T1, GHRH receptor; assay: GHRH receptor binding, competition with 125I-labeled JV-1-42, human pituitary membrane homogenates (Table 7); parameters: Normal human pituitaries were purchased from the National Hormone and Peptide Program; tissue National Hormone and Peptide Program (A.F. Parlow, Harbor-UCLA Medical Center, Torrance, Calif.); host or cells: normal human pituitary, membrane fraction; conditions: for Relative affinity (Binding potency) vs JI-38: JI-38 = 1, Table 7
From the text: Normal human pituitaries were purchased from the National Hormone and Peptide Program (A.F. Parlow, Los Angeles, County Harbor-UCLA Medical Center, Torrance, Calif.).

Row | SMILES | Serum GH level at selected time after injection (ng/ml), 0 min (GH release [1]) [ng/mL] | Serum GH level at selected time after injection (ng/ml), 15 min (GH release [1]) [ng/mL] | Serum GH level at selected time after injection (ng/ml), 30 min (GH release [1]) [ng/mL] | GH-releasing potency after s.c. administration (in words) (GH release [1]) | Relative potency compared to GHRH(1-29), 15 min (GH release [1]) | Relative potency compared to JI-38, 15 min (GH release [1]) | Relative potency compared to GHRH(1-29), 30 min (GH release [1]) | Relative potency compared to JI-38, 30 min (GH release [1]) | Relative affinity (Binding potency) compared to JI-38 (GHRH receptor [2]) | GHRH receptor binding affinity (in words) (GHRH receptor [2]; compared to JI-38) | Relative affinity (Binding potency) compared to hGHRH(1-29) (GHRH receptor [2]) | GH releasing potency relative to JI-38 (=1) (GH release [3]; 15 min after) | GH releasing potency relative to JI-38 (=1) (GH release [3]; 30 min after) | IC50 (GHRH receptor [4]; 125I-JV-1-42, human pituitary membranes, Table 7) [nM] | Relative affinity (Binding potency) vs JI-38 (GHRH receptor [4])
1 | CCCC[C@H](NC(=O)[C@@H](NC(=O)[C@H](CC(=O)O)NC(=O)[C@H](CCC(N)=O)NC(=O)[C@H](CC(C)C)NC(=O)[C@H](CC(C)C)NC(=O)[C@H](CCCN)NC(=O)[C@H](CCCNC(=N)N)NC(=O)[C@H](C)NC(=O)[C@H](CO)NC(=O)[C@H](CC(C)C)NC(=O)[C@H](CCC(N)=O)NC(=O)[C@H](CC)NC(=O)[C@H](CC(C)C)NC(=O)[C@@H](NC(=O)[C@H](CCCN)NC(=O)[C@H](CCCNC(=N)N)NC(=O)[C@H](Cc1ccc(O)cc1)NC(=O)[C@H](CO)NC(=O)[C@H](CCC(N)=O)NC(=O)[C@@H](NC(=O)[C@H](Cc1ccccc1)NC(=O)[C@@H](NC(=O)[C@H](C)NC(=O)[C@H](CC(=O)O)NC(=O)[C@@H](C)NC(=O)[C@H](Cc1ccc(O)cc1)N(C)C(C)=O)[C@@H](C)CC)[C@@H](C)O)C(C)C)[C@@H](C)CC)C(=O)N[C@@H](CC(=O)O)C(=O)NCCCCNC(=N)N [Peptide P-20351, [Ac—N—Me-Tyr^1, D-Ala^2, Gln^8, Orn^12, Abu^15, Orn^21, Nle^27, Asp^28, Agm^29] hGHRH(1-29)NH2] (Ac-[NMeY][dA]DAIFTQSYR[Orn]VL[Abu]QLSAR[Orn]LLQDI[Nle]D-Agmatine) | 30.6 ± 7.2 | 90.8 ± 20.3 | 65.4 ± 10.1 | weaker GH-releasing potency | 18.8 | 0.30 | 33.6 | 0.30 | 0.71 | weaker GH-releasing potency and GH receptor binding affinity | 1.98 | 0.38 | 0.44 | 3.44 | 1.26
2 | CCCC[C@H](NC(=O)[C@@H](NC(=O)[C@H](CC(=O)O)NC(=O)[C@H](CCC(N)=O)NC(=O)[C@H](CC(C)C)NC(=O)[C@H](CC(C)C)NC(=O)[C@H](CCCN)NC(=O)[C@H](CCCNC(=N)N)NC(=O)[C@H](C)NC(=O)[C@H](CO)NC(=O)[C@H](CC(C)C)NC(=O)[C@H](CCC(N)=O)NC(=O)[C@H](CC)NC(=O)[C@H](CC(C)C)NC(=O)[C@@H](NC(=O)[C@H](CCCN)NC(=O)[C@H](CCCNC(=N)N)NC(=O)[C@H](Cc1ccc(O)cc1)NC(=O)[C@H](CO)NC(=O)[C@H](CC(N)=O)NC(=O)[C@@H](NC(=O)[C@H](Cc1ccccc1)NC(=O)[C@@H](NC(=O)[C@H](C)NC(=O)[C@H](CC(=O)O)NC(=O)[C@@H](C)NC(=O)[C@H](Cc1ccc(O)cc1)NC)[C@@H](C)CC)[C@@H](C)O)C(C)C)[C@@H](C)CC)C(=O)N[C@@H](CC(=O)O)C(=O)N[C@@H](CCCNC(=N)N)C(=O)NCC [Peptide P-28421, [N—Me-Tyr^1, D-Ala^2, Orn^12, Abu^15, Orn^21, Nle^27, Asp^28]hGHRH(1-29) NH—CH2—CH3] (H-[NMeY][dA]DAIFTNSYR[Orn]VL[Abu]QLSAR[Orn]LLQDI[Nle]DR-NHEt) | 44.0 ± 8.9 | 252.4 ± 33.3 | 137.3 ± 17.5 | – | 71.2 | 1.13 | 125.4 | 1.12 | 0.90 | – | 2.50 | – | – | – | 2.96
